Test [1] concerns women at risk of developing moderate-severe early OHSS. In words: Prospective, randomized, double blind study of cabergoline in oocyte donors at risk of OHSS (Example 6). Format: in vivo. On the procedure:
Materials and Methods. Example 5 is a prospective, randomized and double blind study of 54 oocyte donors in whom 20-30 follicles greater than 12 mm developed, and from whom more than 20 oocytes were retrieved. Immediately after hCG administration, patients were divided in two groups based on a computer randomization: 1) the study group (n=29) received 0.5 mg oral cabergoline daily for eight days; the control group (n=25) received one tablet of placebo for the same eight days. The patients were monitored every 48 hours from the day of hCG administration (day 0) up through day 8. The presence of ascites was defined as a pocket of peritoneal fluid greater than 9 cm^2, with the patient in litotomy position seen on vaginal ultrasound. Also, regular blood parameters and serum PRL levels were recorded.

A further test deals with OHSS rats. Description: Previous experiments of the group: cabergoline and vascular permeability in OHSS rats. Format: in vivo. The settings on record: cabergoline 250 μg/kg/day; p<0.05. On the procedure: Vehicle control group (quinagolide 0 μg/kg) (n=8). Eight rats were implanted with prolactin placebo pellets, 5 days release, between 10:00 to 11:00 on day 26, just following hCG injection (see General Procedures, above). Six hours after pellet implantation, the rats in this group were orally administered vehicle solution (1:6 alcohol in water mixture) (without quinagolide). They received another oral vehicle administration of vehicle solution 24 hours later. Experimental groups (quinagolide at 0.1, 0.3, 1, 3, 10, 25, 50 μg/kg/day to 7 test groups of rats) (n=8 in each test group). The rats in these groups were implanted with prolactin pellets, 5 days release, between 10:00 to 11:00 on day 26, just following hCG injection (see General Procedures, above). […] In this manner, the desired 0.1, 0.3, 1, 3, 10, 25, 50 μg/kg doses to be assayed were achieved. Twenty four hours later, the rats in this group were administered with another dose of the same amounts of quinagolide. Positive (cabergoline) control group (n=6). These six rats were implanted with prolactin pellets, 5 days release, between 10:00 to 11:00 .m on day 26, just following hCG injection. […] Twenty four hours later, the rats in this group were administered with another dose of the same amount of cabergoline. […] Reconstitution and dilution process to reach appropriate quinagolide doses for oral administration. […]

Test [2] concerns patient with pituitary adenoma and OHSS. To be noted: cabergoline 0.5 mg twice per week for three weeks; cited from earlier work.
Test [3] relates to women with PCOS and hyperprolactinemia. To be noted: during ovarian induction with GnRH agonist, FSH and hCG; cited from earlier work.

Take `C=CCN1C[C@H](C(=O)N(CCCN(C)C)C(=O)NCC)C[C@@H]2c3cccc4[nH]cc(c34)C[C@H]21` [Cabergoline, cabergoline]: in test [1] (0.5 mg oral cabergoline daily for eight days, n=29, mean ± SEM, p 0.006 vs control), the “Haemoglobin day 4” value came out at 12.7 ± 1.2 g/dL. For the same compound, in test [1] (0.5 mg oral cabergoline daily for eight days, n=29, mean ± SEM, p 0.01 vs control), the “Haemoglobin day 6” value stood at 12.9 ± 1.2 g/dL. Besides, the “Free fluid area day 6” value in test [1] (0.5 mg oral cabergoline daily for eight days, n=29, mean ± SEM, p 0.03 vs control) is 8.8 ± 1.7 cm2. The “Hematocrit day 6” value in test [1] (0.5 mg oral cabergoline daily for eight days, n=29, mean ± SEM, p 0.04 vs control) is on record as 38.9 ± 3.9%. For the same compound, the Ascites % in test [1] (0.5 mg oral cabergoline daily for eight days, 7/29 patients, ascites = pocket of peritoneal fluid greater than 9 cm^2, p 0.01 vs control) is 24.1 7/29%. The “Serum PRL levels” value in test [1] (0.5 mg oral cabergoline daily, days 2, 4, 6 and 8 as compared to controls, p<0.0001) is given as “significantly lower”. Further, the “vascular permeability in OHSS rats” value in the test with OHSS rats was “significant decrease in vascular permeability”. Further, the prolactin levels entry in test [2] is “normalized prolactin levels”. Besides, the “risk of OHSS” value in test [3] is “reduce the risk of OHSS”.

The values above are taken from US8334298B2, “Treatment or prevention of ovarian hyperstimulation syndrome (OHSS) using a dopamine agonist” (Ferring International Center S.A., priority 2005, dated 2012).
